Patent US9511120B2, “Use of the angiotensin-(1-9) peptide or derivatives thereof, use of vectors overexpressing the ACE2 enzyme that produces angiotensin-(1-9) for preparing medicaments useful for preventing, reverting, inhibiting and/or reducing hypertension and/or inducing vasodilation” (PONTIFICA UNIVERSIDAD CATÓLICA DE CHILE, priority 2012, dated 2016)
Marks after values point to notes of the source that are not given here. Where no end group is shown, it is not given here.

Legend:
TGFβ-1 = assay: Goldblatt model: TGFβ-1 protein levels in the aortic wall; type: in vivo, rat; details: GB rats
Source text: (§1) Lewis normotensive rats (weight 150±10 g), which were separated randomly into the experimental hypertension model group or GB (Ocaranza et al. J. Hypertens. 20:413-20, 2002) or control group (S) were used. The latter corresponded to pseudo-operated animals. All animals were maintained under controlled conditions of light and darkness and had free access to food and water. Four weeks after surgery and at a blood pressure above 140 mmHg, GB rats were randomized for the chronic administration of angiotensin-(1-9) through an osmotic pump (602 ng kg^−1min^−1) via the jugular vein during two weeks. The animals were euthanized after 6 weeks post-surgery.
For the determination of collagen I and TGFβ-1, 30 μg and 50 μg of total proteins were used, respectively, diluted in SDS reducing buffer (50 mM tris-HCl, pH 7.4, NP-40 10%, NaCl 1M, Na deoxycholate 5%, EDTA 10 mg/mL, SDS 10%, aprotinin 1 mg/mL, leupeptin 0.1 mg/mL, PMSF 10 mM), they were then separated by SDS-PAGE gel electrophoresis 7%, and transferred to nitrocellulose membranes of […] to 300 mA for 1 h. The transfer of proteins was monitored by Ponceau red staining. […]

ED-1 = assay: Goldblatt model: ventricular content of ED-1; type: in vivo, rat; details: GB rats, ventricle
Source text: as §1
Immunostaining was performed using the streptavidin-biotin-peroxidase method with the inflammation marker ED-1. This is a glycoprotein expressed primarily in the lysosomal membrane of active macrophages (Leskovar et al. J. Exp. Biol. 203:1783-1795, 2000).
In order to block endogenous peroxidase, the samples were deparaffinized, rehydrated and treated with 10% H2O2 in methanol for 1 h. Then, the tissues were incubated with monoclonal antibody anti ED-1 (clone MCA341R, Serotec) diluted 1/1000 in 1% BSA prepared in PBS-0.05% Tween 20 overnight at 4° C. in a humid chamber. The sections were washed three times with 1×PBS-0.05% Tween 20, pH 7.4 for 5 min and incubated with the biotinylated secondary antibody for 30 min at room temperature. […]

[1] = system: thoracic aortas of hypertensive rats by angiotensin II infusion; assay: Angiotensin II infusion model: aortic hypertrophy by morphometry; type: in vivo, rat; details: thoracic aorta, 14 days infusion
Experimental: (§2) Rats were subjected to the model of angiotensin II infusion (Grobe et al.: Am. J. Physiol. 292: H736-42, 2007). The animals were separated randomly into the following experimental groups: controls (Sham or pseudo-operated), infused with angiotensin II (300 ng/kg min), infused with angiotensin II and angiotensin-(1-9) (300 ng/kg min and 602 ng/kg min, respectively), and then infused with angiotensin II, angiotensin-(1-9) and the angiotensin-(1-7) receptor antagonist, A779 (300 ng/kg min, 602 ng/kg min, and 100 ng/kg min, respectively). In all cases the pumps operated at a flow of 0.5 μL/h and were implanted in the right jugular vein through a catheter fitted in an intrascapular subcutaneous pocket under anesthesia with ketamine HCl/xylazine (35 and 7 mg/kg i.p., respectively), for a period of 14 days.
(§3) Aortic hypertrophy was determined by morphometry. Sections of the descending aorta of 5 μm thick, which were previously fixed in Bouin (1.3% picric acid, 9.5% formaldehyde and 4.8% acetic acid) for 24 hours, embedded in paraffin and stained with hematoxylin-eosin, were used, to be examined later in a light microscope as described by Igase et al. (Am. J. Physiol. 289:H1013-9, 2005). Briefly, images of the aortas were captured by a video camera (Nikon) fixed to a microscope (Nikon), and projected on a monitor; using the software Nis-Element. Lumen areas (LA) and total areas (TA) were calculated and recorded. The tunica media area (TMA) was obtained from the difference between the TA and LA of the aorta. The tunica media thickness (TMT) was defined as the region delimited by the external elastic lamina (EEL) and internal elastic lamina (IEL).

[2] = system: cardiomyocyte hypertrophy induced by Ang II in vivo; assay: Angiotensin II infusion model: cardiomyocyte hypertrophy (area and perimeter); design: species or system rat
Experimental: as §2
The middle portion of the left ventricle (LV) was dehydrated at room temperature for 24 h in Bouin and then embedded in paraffin. Sections of 10-15 μm thick were taken and stained with hematoxylin-eosin, to be examined later in a light microscope in order to observe their general morphological characteristics. Cardiomyocyte size was determined according to Nakamura et al. (Circulation, 98:794-9, 1998). Briefly, images of the cells were captured using a Nikon DS Fi1 camera and projected on a monitor using a software program. The cardiomyocyte area and perimeter were measured and recorded, using the Nis-Element program (Ocaranza et al. J. Hypertens., 28:1054-64, 2010). All measurements were performed by a blinded observer, and at least 80 images of cells per animal, which were randomly selected, were analyzed.

[3] = system: thoracic aortas of hypertensive rats by pressure overload; assay: Goldblatt model: aortic hypertrophy by morphometry; type: in vivo, rat; details: GB rats, thoracic aorta
Source text: as §1, §3

[4] = system: hypertensive rats by administration of angiotensin II; assay: Hypertension induced by angiotensin II infusion: body mass, cardiac mass, systolic blood pressure; type: in vivo, rat
Experimental: as §2
Systolic blood pressure (SBP) was measured by the tail plethysmographic method in the animals. To such end, rats were lightly anesthetized with ethyl ether. The measurement was performed once a week by researchers blind to the treatment (Ocaranza et al. J. Hypertens. 20:413-20, 2002).
The degree of cardiac hypertrophy (CH) was measured by the ratio of the cardiac mass (CM), the body mass (BM) and relative cardiac mass (RCM; [CM/BM]*100) (Ocaranza et al., J. Hypertens. 28:1054-1064, 2010).
Four experimental groups of rats were established as described in Example 1. Group 1 corresponds to rats which were infused with saline (Sham). Group 2 corresponds to rats which were infused with only angiotensin II. Group 3 correspond to rats which were co-infused with angiotensin II and angiotensin-(1-9). And Group 4 corresponds to rats which were co-infused with angiotensin II, angiotensin-(1-9) and A779.

[5] = co-administered with angiotensin II

DRVYIHPFH
decrease of TGFβ-1 levels (TGFβ-1): 47% | # Positive cells (ED-1) (ED-1): 0-20 | Assigned value (ventricular content of ED-1) (ED-1): 1^# (Low number of ED1 and isolated) | ratio of tunica media area (TMA) to LA [1]: significantly prevented the increase | thickness of the tunica media (TMT) [1]: significantly prevented the increase | reduction in cell area as compared to the group infused with angiotensin II alone [2, 5]: 20% | reduction in cell perimeter as compared to the group infused with angiotensin II alone [2, 5]: 11% | cardiomyocyte cell area ([2]; left ventricle, two weeks): 227±2 μm^2 | cardiomyocyte perimeter ([2]; left ventricle, two weeks): 59.1±0.3 μm | increase in TMA [3]: reduced significantly | increase in TMA/AL [3]: reduced significantly | increase in TMT [3]: reduced significantly | SBP 1st week ([4]; 1st week of infusion): 141 ± 9 mmHg | SBP 2nd week ([4]; 2nd week of infusion): 139 ± 11 mmHg | Initial SBP ([4]; baseline, tail plethysmography): 123 ± 11 mmHg | decrease of SBP as compared to angiotensin II ([4]; co-administration with angiotensin II): 10% | CM ([4]; rats, infusion for 14 days): 984 ± 26 mg | RCM (MV/MC) ([4]; rats, infusion for 14 days): 386 ± 36
